# Source: US6342504B1, “Aromatic heterocyclic derivatives as enzyme inhibitors” (priority 1994, dated 2002)
# Where a name gives a salt, the structure may show the parent alone. Read-outs that look alike come from different tables or passages of the source. Marks after values point to notes of the source that are not given here.
# How the values were obtained:
# [1] = system: FeCl3-induced occlusive thrombus in rat carotid artery; assay: Rat model of FeCl3-induced platelet-dependent arterial thrombosis; assay type: in vivo; conditions: for Incidence of Occlusion: n 6
# Source text: Rat Model of FeCl3-induced Platelet-dependent Arterial Thrombosis
# Kurz, K. D., Main, B. W., and Sandusky, G. E., Thromb. […] In this model a platelet-rich, occlusive thrombus is formed in a segment of the rat carotid artery treated locally with a fresh solution of FeCl3 absorbed to a piece of filter paper. The FeCl3 is thought to diffuse into the treated segment of artery and cause de-endothelialization of the affected vessel surface. […] The effect of a test compound on the incidence of occlusive thrombus formation following the application of the FeCl3 is monitored by ultrasonic flowtometry and is used as the primary end point. The use of flowtometry to measure carotid artery blood flow, is a modification of the original procedure in which thermal detection of clot formation was employed. Kurz, K. D., Main, B. W., and Sandusky, G. E., Thromb.
# Male Harlan Sprague Dawley rats (420-450 g) were acclimated at least 72 hours prior to use and fasted for 12 hours prior to surgery with free access to water. The animals were prepared, anesthetized with Nembutal followed by the insertion of catheters for blood pressure monitoring, drug and anesthesia delivery. The left carotid artery was isolated by making a midline cervical incision followed by blunt dissection and spreading techniques to separate a 2 cm segment of the vessel from the carotid sheath. A silk suture is inserted under the proximal and distal ends of the isolated vessel to provide clearance for the placement of a ultrasonic flow probe (Transonic) around the proximal end of the vessel. The probe is then secured with a stationary arm.
# The test compound was administered as a single intravenous bolus at the doses outlined in Table 4 after placement of the flow probe and 5 minutes prior to the thrombogenic stimulus. At t=0, a 3 mm diameter piece of filter paper (Whatman #3) soaked with 10 microliters of a 35% solution of fresh FeCl3 (made up in water) was applied the segment of isolated carotid artery distal to the flow probe. Blood pressure, blood flow, heart rate, and respiration were monitored for 60 minutes.
# The incidence of occlusion (defined as the attainment of zero blood flow) was recorded as the primary end point.
# This allows a direct comparison of the antithrombotic efficacy of [3-[(benzylsulfonyl)amino]-2-oxo-1,2-dihydropyridyl]acetyl-L-argininal, with other antithrombotic agents which have also been evaluated in this model as described above. Table 5 lists the ED50 values for several well known anticoagulant agents in this model compared to [3-[(benzylsulfonyl)amino]-2-oxo-1,2-dihydropyridyl]acetyl-L-argininal.
# [2] = system: clot formation on silk thread in A-V shunt; assay: Multiple extracorporeal (A-V) shunt model in rats utilizing oral dosing; assay type: in vivo; conditions: rat, read-out: ED50 value (dose that reduced the clot size by 50%)
# Protocol: The compounds of Example 10 and 143 were evaluated in a multichamber A-V shunt model in rats. The A-V shunt model is one of the most common and generally used systems to evaluate antithrombotic compounds: Smith, J. R. and White, A. M. Br. J. Pharmacol., 77: 29-38 (1982). In this model a localized clot made up of primarily fibrin with some platelet and macrophage involvement (Shand, R. A. and Smith, J. R. and Wallis, R. B. Thromb. Res., 36: 223-232 (1984)), is formed on an artificial thrombogenic surface (typically a segment of silk or cotton thread) contained in a sialstic chamber which is part of an exteriorized shunt between the carotid artery and jugular vein. The procedure described in this Example is a modified A-V shunt model that allows for oral dosing of test agents and subsequent evaluation of efficacy over a two to three hour window in time.
# Briefly, male Harlan Sprague Dawley rats (420-450 g) were acclimated at least 72 hours prior to use. The animals were fasted for 12 hours prior to surgery with free access to water. Unanesthetized animals were grouped into three or four dosage groups (six or seven animals per group) and administered test agents orally via gavage needle, at doses of 1.0, 3.0, 10 and 50 mg/kg for the compound of Example 10, and 3.0, 10 and 30 mg/kg for the Compound of Example 143. Immediately after oral dosing, animals were anesthetized with sodium pentobarbital (Nembutal) given intraperitoneally at a dose of 50 mg/kg body weight, and placed on a isothermal pad to maintain body temperature. The level of anesthesia was monitored every 15 minutes by neuro-response to a tail pinch, respiration and core temperature. The desired depth of surgical anesthesia was maintained by administering subsequent doses (5 mg/kg) intravenously. The left femoral artery was catheterized using standard procedures for blood pressure monitoring and blood sampling, with polyethylene tubing (PE50). The left femoral vein was catheterized with PE50 tubing for delivery of anethestic.
# The exteriorized shunts were assembled by connecting two pieces of saline filled 12.5 cm PE90 tubing with a 6 cm piece of PE160 tubing containing a 6 cm piece of silk suture size 3 and clamped with hemostats. A small 0.5 cm portion of the silk thread protrudes from the junction of the chamber with the shunt. The left jugular vein and right carotid artery were catheterized with the ends of the PE90 shunt. The shunt was unclamped and blood allowed to flow from the carotid artery, through the chamber, and exit the shunt via the jugular vein. After 15 minutes, both sides of the chamber were clamped and the suture containing the clot removed following detachment of the arterial end of the chamber. The clot was immediately weighed and recorded. This procedure takes place at predetermined intervals (60, 90, 120, and 150 minutes after oral dosing) to allow assessment of efficacy over a large window in time. Four shunts were placed with flow initiated at 45, 75, 105, and 135 minutes after oral compound administration. Clot weight from the four shunts was the primary endpoint of the protocol. Blood pressure, heart rate core temperature and respiration were monitored continuously. Following termination of the experiment the animals were euthanized with a 120 mg/kg dose of Nembutal. One experiment was performed per animal.
# ED50 values were calculated at 60, 90, 120, and 150 minutes after oral dosing of test compound. ED50 is that dose that reduced the clot size by 50%. […]
smiles,measurement,setting,value
"N=C(N)NCCC[C@@H](C=O)NC(=O)Cn1cccc(NS(=O)(=O)Cc2ccccc2)c1=O [Example 10, [3-[(benzylsulfonyl)amino]-2-oxo-1,2-dihydropyridyl]acetyl-L-argininal, trifluoroacetate salt]",Incidence of Occlusion,"[1]; 0.3 mg/kg single intravenous bolus 5 minutes prior to FeCl3, monitored 60 minutes",6/6
same,Incidence of Occlusion,[1]; 1.0 mg/kg single intravenous bolus 5 minutes prior to FeCl3,3/6
same,Incidence of Occlusion,"[1]; 3.0 mg/kg single intravenous bolus 5 minutes prior to FeCl3, p ≦ 0.05 from saline control",1/6*
same,Incidence of Occlusion,"[1]; 5.0 mg/kg single intravenous bolus 5 minutes prior to FeCl3, p ≦ 0.05 from saline control",0/6*
same,ED50,"[1]; Rattus norvegicus, read-out: ED50 for thrombus prevention (dose that prevents complete thrombotic occlusion in 50% of animals)",1 mg/kg
same,ED50,"[2]; 1 h, 60 min after oral dose",< 1 mg/kg
same,ED50,"[2]; 1.5 h, 90 min after oral dose",2.9 mg/kg
same,ED50,"[2]; 2 h, 120 min after oral dose",2.9 mg/kg
same,ED50,[2]; 150 min after oral dose,8.2 mg/kg
